Legend:
5LO mRNA = test: rtPCR of 5LO mRNA in adult rat cardiomyocytes; format: cell-based
Experimental: Cardiac myocytes were isolated from adult Sprague-Dawley rats (250-300 g, male). Animals were heparinized (1,000-2,000 units i.p.) 5 min before being anesthetized with ketamine (100 mg/kg) and xylazine (10 mg/kg), and the hearts were removed and placed in ice-cold heart media solution (in mmol/l: 112 NaCl, 5.4 KCl, 1 MgCl2, 9 NaH2PO4, and 11.1 D-glucose; supplemented with 10 HEPES, 30 taurine, 2 DL-carnitine, and 2 creatine, pH. 7.4). The hearts were perfused retrogradely in a Langendorff apparatus with Ca^2+-free heart media for 5 min at 5 ml/min at 37° C., followed by perfusion with Ca^2+-free heart media containing collagenase II, 210 U/mg (Worthington, Lakewood, N.J.) for 20 min. After perfusion, both ventricles were removed from the heart and minced in collagenase II-containing heart media for 10-15 min. The cell solution was then washed several times to remove collagenase II and reexposed to 1.2 mM Ca2^+ over 25 min to produce Ca2^+-tolerant cardiac myocytes. Myocytes were then plated in 4% FBS on laminin (2 μg/cm^2)-coated plates for 1 h and incubated at 37° C. in 5% CO2 for 12-24 h before experiments (21). Cells were incubated with 1) vehicle (0.07% ethanol); 2) PIO (10 μM)+ATV (10 μM); 3) H-89 (0.1 μM); or 4) PIO+ATV+H-89 for 12 hours. The supernatants were collected directly for LTB4 analyses by ELISA and the cells were harvested for immunoblotting. In addition, cells were plated in 8-chamber slides, received the same treatment as above and were used for immunohistochemical staining.
Equal amounts of total cellular RNA were reverse-transcribed with oligo(dT) primer by use of AMV Reverse Transcriptase (Applied Biosystems). Transcribed cDNAs (40 ng) were used for Real Time PCR with specific primers: rat ALOX5. […] The Ct (threshold cycle) is defined as the number of cycles required for the fluorescence signal to exceed the detection threshold. Expression of the ALOX5 relative to the GAPDH was calculated as the different between the threshold values of these two genes. […]

5LO = test: immunoblotting of 5LO in cytosolic, membranous and nuclear fractions of myocardial cells; format: in vivo; conditions: rat myocardium
Experimental: Rats received: 1) […] (20 mg/kg) or 6) water alone (control). PIO and ATV were suspended in water and administered by gastric gavage once daily for 3 days; H-89 was dissolved in DMSO (final concentration 5% v/v) and injected intraperitoneally on the third day. Rats in groups 5 and 6 received water by gastric gavage once daily for 3 days. Rats in groups 1, 2 and 6 received intraperitoneal inkection of DMSO 5%. Sixteen hours after the injection, rats were euthanized and the hearts explanted for further analyses. In another experiment, rats received 3-day pretreatment with: 1) […]); or 5) LPS (10 mg/kg). Myocardial samples (0.25 g) were homogenized, mixed with Buffer A Mix [Hepes (pH 7.9) 10 mM, KCl 10 mM, EDTA 10 mM, DTT 100 mM, protease inhibitor cocktail, and IGEPAL 10%, (Sigma, St Lois, Mo.)], homogenized again and incubated for 15 min on ice, and centrifuged at 850×g for 10 min at 4° C. The supernatant was discharged, Buffer A Mix was added again and the samples incubated for an additional 15 min on ice, and centrifuged at 15,000×g for 3 min at 40 C. The supernatant contains the cytosolic fraction was collected. The pellet was resuspended in 150 μl of Buffer B Mix [Hepes (pH 7.9) 20 mM, NaCl 0.4M, EDTA 1 mM, glycerol 10%, protease inhibitor cocktail, and IGEPAL 10%], the tubes were shaked on ice at 200 rpm for 2 h, centrifuged at 15,000×g for 5 min at 4° C., and supernatants were collected as the nuclear fraction. […] The hearts were rapidly explanted, rinsed in cold PBS (pH 7.4), containing 0.16 mg/ml heparin to remove red blood cells and clots, frozen in liquid nitrogen and stored at -70° C. Myocardial samples from the anterior left ventricular wall were homogenized in RIPA lysis buffer (Santa Cruz Biotechnology, Santa Cruz, Calif.) and centrifuged at 14,000 rpm for 15 min at 4° C. The supernatant was collected and the total protein concentration was determined using the Lowry protein assay. […] The protein samples with loading buffer were run in 4-20% Tri-HCl Ready Gel at a 100V for 2 h until the desired molecular weight bands were separated. After electrophoresis, the gel was equilibrated in transfer buffer (25 mM Tris, 193 mM glycine, 0.1% SDS and 10% methanol) and the proteins were transferred to nitrocellulose membrane. The protein signals were quantified by an image-scanning-densitometer and the strength of each protein signal was normalized to the corresponding b-actin stain signal. Data are expressed as a ratio between the protein and the corresponding b-actin signal density.

Structure (SMILES) | 5LO mRNA levels in the cardiomyocytes (5LO mRNA) | 5LO levels in the cytosolic fraction (5LO) | 5LO levels in the membranous fraction (5LO)
O=S(=O)(NCCNC/C=C/c1ccc(Br)cc1)c1cccc2cnccc12 [H-89] | did not affect | no significant effect | no significant effect
CC(C)c1c(C(=O)Nc2ccccc2)c(-c2ccccc2)c(-c2ccc(F)cc2)n1CCC(O)CC(O)CC(=O)O (stereo not drawn) [ATV, 7-[2-(4-fluorophenyl)-5-(1-methylethyl)-3-phenyl-4-(phenylcarbamoyl)-1H-pyrrol-1-yl]-3,5-dihydroxy-heptanoic acid] | did not affect | small, yet significant increase | no detectable effect
